Measured values from PubChem BioAssay AID1743 (Vanderbilt High Throughput Screening Facility, 2009).

Molecular target: Muscarinic acetylcholine receptor M1 (Rattus norvegicus) (UniProt P08482)
Experiment: M1 Y381A mutant agonism, calcium flux – cell-based, rat, CHO-K1, mechanism study for M1 allosteric modulator project (AID 1743)
Details: Fluo-4 calcium flux

Chain of Muscarinic acetylcholine receptor M1 (Rattus norvegicus) (P08482 whole entry Y381A, looked up): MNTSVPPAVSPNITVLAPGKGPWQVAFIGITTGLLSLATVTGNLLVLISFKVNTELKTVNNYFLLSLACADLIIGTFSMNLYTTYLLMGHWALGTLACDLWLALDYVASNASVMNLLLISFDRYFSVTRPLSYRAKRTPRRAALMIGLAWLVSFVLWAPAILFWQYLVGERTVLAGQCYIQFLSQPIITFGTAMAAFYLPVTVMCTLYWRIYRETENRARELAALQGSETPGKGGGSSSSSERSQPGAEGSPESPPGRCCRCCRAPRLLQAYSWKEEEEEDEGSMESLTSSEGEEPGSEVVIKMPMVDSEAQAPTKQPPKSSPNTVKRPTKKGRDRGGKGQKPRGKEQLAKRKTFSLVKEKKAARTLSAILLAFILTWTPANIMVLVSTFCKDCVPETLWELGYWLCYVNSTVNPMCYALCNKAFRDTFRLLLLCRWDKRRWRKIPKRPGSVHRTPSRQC

| EC50 [nM] | Structure (SMILES) |
| --- | --- |
| 1230 | CCOC(=O)N1CCC(NCCNC(=O)c2cccs2)CC1 |
| 304 | CCOC(=O)N1CCC(NCCNC(=O)c2ccccc2)CC1 |
| 379 | CCOC(=O)N1CCC(NCCNC(=O)c2ccccc2C)CC1 |
